Measured values from ChEMBL document CHEMBL1159089, “Synthesis, antimalarial and antitubercular activity of acetylenic chalcones” (Bioorg Med Chem Lett, 2010).
≈ marks a conversion by molar mass, not a printed value.

Legend:
Plasmodium falciparum [1] = experiment: Antimicrobial activity against chloroquine-resistant Plasmodium falciparum W2; format: functional, organism-based
Falcipain 2 = molecular target: T1, Falcipain 2 (Plasmodium falciparum, UniProt Q9N6S8); experiment: Inhibition of Plasmodium falciparum falcipain-2
T1 sequence (Q9N6S8 whole entry): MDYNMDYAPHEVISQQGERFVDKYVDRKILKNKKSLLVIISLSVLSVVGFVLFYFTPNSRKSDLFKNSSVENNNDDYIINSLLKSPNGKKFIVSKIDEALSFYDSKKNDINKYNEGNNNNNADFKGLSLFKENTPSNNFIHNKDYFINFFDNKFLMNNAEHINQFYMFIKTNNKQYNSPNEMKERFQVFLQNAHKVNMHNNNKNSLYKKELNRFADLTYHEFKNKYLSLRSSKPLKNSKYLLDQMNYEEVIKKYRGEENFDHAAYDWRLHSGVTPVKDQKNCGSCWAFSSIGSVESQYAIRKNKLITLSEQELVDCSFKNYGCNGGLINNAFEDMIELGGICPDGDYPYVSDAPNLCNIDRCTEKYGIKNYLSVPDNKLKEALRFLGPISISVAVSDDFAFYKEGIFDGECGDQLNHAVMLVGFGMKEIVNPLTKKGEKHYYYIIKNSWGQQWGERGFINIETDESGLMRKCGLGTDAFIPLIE

[2] = test system: Mycobacterium tuberculosis; experiment: Antitubercular activity against Mycobacterium tuberculosis H37Rv by microplate Alamar blue assay; format: functional
[3] = test system: Mycobacterium tuberculosis; experiment: Antitubercular activity against Mycobacterium tuberculosis H37Rv by low-oxygen-recovery assay; format: functional
Plasmodium falciparum [4] = experiment: Antimicrobial activity against chloroquine-sensitive Plasmodium falciparum D10; format: functional, organism-based

SMILES	IC50 (Plasmodium falciparum [1]) [µM]	IC50 (Falcipain 2) [µM]	MIC [2] [µM]	MIC [3] [µM]	IC50 (Plasmodium falciparum [4]) [µM]
C#CCOc1ccccc1/C=C/C(=O)c1ccc(OC)cc1OC	> 20	> 100	59.1 (≈ 19.1 µg/mL)	14.9 (≈ 4.8 µg/mL)	8
C#CCOc1ccc(/C=C/C(=O)c2ccc(OC)cc2)cc1	> 20	> 100	> 128	–	> 100
C#CCOc1cccc(C(=O)/C=C/c2ccc(OC)cc2OC)c1	> 20	> 100	> 128	–	> 100
C#CCOc1cccc(C(=O)/C=C/c2ccc(OC)c(OC)c2OC)c1	> 20	> 100	58.7 (≈ 20.7 µg/mL)	29.7 (≈ 10.5 µg/mL)	33
C#CCOc1ccc(/C=C/C(=O)c2ccc(OC)cc2OC)cc1OC	3.8	–	> 128	–	3.4
C#CCOc1ccc(C(=O)/C=C/c2ccc(OC)cc2OC)cc1	> 20	> 100	31 (≈ 9.99 µg/mL)	108 (≈ 34.8 µg/mL)	> 100
C#CCOc1ccc(C(=O)/C=C/c2ccc(OC)c(OC)c2OC)cc1	> 20	> 100	> 128	–	4.43
C#CCOc1ccc(/C=C/C(=O)c2ccc(OC)cc2)cc1OC	8.4	–	> 128	–	9.7
C#CCOc1ccc(/C=C/C(=O)c2ccc(OC)c(OC)c2OC)cc1OC	7	–	109 (≈ 41.7 µg/mL)	–	7.7
C#CCOc1ccccc1C(=O)/C=C/c1ccc(OC)c(OC)c1OC	> 20	> 100	98.7 (≈ 34.8 µg/mL)	46.1 (≈ 16.2 µg/mL)	> 100
C#CCOc1cccc(C(=O)/C=C/c2ccc(OC)cc2)c1	> 20	> 100	51.2 (≈ 15 µg/mL)	> 128	> 100
C#CCOc1ccc(/C=C/C(=O)c2ccc(OC)c(OC)c2OC)cc1	> 20	> 100	> 128	–	13.3
C#CCOc1ccccc1C(=O)/C=C/c1ccc(OC)cc1	> 20	> 100	31.1 (≈ 9.09 µg/mL)	56.7 (≈ 16.6 µg/mL)	> 100
C#CCOc1ccccc1C(=O)/C=C/c1ccc(OC)cc1OC	> 20	> 100	53.7 (≈ 17.3 µg/mL)	62.8 (≈ 20.2 µg/mL)	18.9
C#CCOc1cccc(/C=C/C(=O)c2ccc(OC)cc2)c1	> 20	> 100	40 (≈ 11.7 µg/mL)	31.7 (≈ 9.27 µg/mL)	11.6
C#CCOc1cccc(/C=C/C(=O)c2ccc(OC)cc2OC)c1	> 20	> 100	54.9 (≈ 17.7 µg/mL)	26.1 (≈ 8.41 µg/mL)	7.57
C#CCOc1cccc(/C=C/C(=O)c2ccc(OC)c(OC)c2OC)c1	> 20	> 19	54 (≈ 19 µg/mL)	13.1 (≈ 4.62 µg/mL)	> 100
C#CCOc1ccccc1/C=C/C(=O)c1ccc(OC)cc1	> 20	> 100	47.5 (≈ 13.9 µg/mL)	50.7 (≈ 14.8 µg/mL)	> 100
C#CCOc1ccccc1/C=C/C(=O)c1ccc(OC)c(OC)c1OC	> 20	> 100	61.9 (≈ 21.8 µg/mL)	28.6 (≈ 10.1 µg/mL)	50.6
C#CCOc1ccc(C(=O)/C=C/c2ccc(OC)c(OC)c2OC)cc1OC	6.7	–	> 128	–	4.1
C#CCOc1ccc(/C=C/C(=O)c2ccc(OC)cc2OC)cc1	> 20	> 100	> 128	–	54.8
C#CCOc1ccc(C(=O)/C=C/c2ccc(OC)cc2)cc1	> 20	> 100	> 128	–	16.5
C#CCOc1ccc(C(=O)/C=C/c2ccc(OC)cc2OC)cc1OC	9.7	–	> 128	–	20
CC(C)C[C@H](NC(=O)[C@H]1O[C@@H]1C(=O)O)C(=O)NCCCCN=C(N)N [E-64]	–	0.047	–	–	–
NNC(=O)c1ccncc1 [ISONIAZID]	–	–	0.37 (≈ 0.0507 µg/mL)	> 128	–
COc1c(N2C[C@@H]3CCCN[C@@H]3C2)c(F)cc2c(=O)c(C(=O)O)cn(C3CC3)c12 [MOXIFLOXACIN]	–	–	0.29 (≈ 0.116 µg/mL)	31.1 (≈ 12.5 µg/mL)	–
O=[N+]([O-])c1cn2c(n1)OC[C@@H](OCc1ccc(OC(F)(F)F)cc1)C2 [PRETOMANID]	–	–	0.16 (≈ 0.0575 µg/mL)	3.3 (≈ 1.19 µg/mL)	–
CO[C@H]1/C=C/O[C@@]2(C)Oc3c(C)c(O)c4c(O)c(c(/C=N/N5CCN(C)CC5)c(O)c4c3C2=O)NC(=O)/C(C)=C\C=C\[C@H](C)[C@H](O)[C@@H](C)[C@@H](O)[C@@H](C)[C@H](OC(C)=O)[C@@H]1C [RIFAMPIN]	–	–	0.05 (≈ 0.0411 µg/mL)	2.4 (≈ 1.98 µg/mL)	–
